Measured values as given in ChEMBL document CHEMBL3861954, “A novel bis-furan scaffold for transthyretin stabilization and amyloid inhibition” (Eur J Med Chem, 2016).
Calls of active or inactive are those of the source. No cut-off for these calls is given here.

Experiments:
Transthyretin [1] = molecular target: T1, Transthyretin (Homo sapiens, UniProt P02766); experiment: Stabilization of wild type TTR tetramer in human plasma assessed as tetramer to total protein ratio preincubated overnight at 4 degC followed by further incubation at room temperature for 1 hr in presence of 4M urea by isoelectric focusing densitometric analysis
Transthyretin [2] = molecular target: T1, Transthyretin; experiment: Displacement of [125I]-T4 from wild type TTR in human plasma after 1 hr by PAGE analysis; type: cell-free
[3] = Cytotoxicity against human HepG2 cells assessed as decrease in cell viability after 72 hrs by resazurin reduction assay; type: toxicity, cell-based; conditions: read-out: ID50
[4] = system: Transthyretin (Homo sapiens), P02766 [V50M]; experiment: Stabilization of TTR V30M mutant tetramer in human plasma assessed as tetramer to total protein ratio preincubated overnight at 4 degC followed by further incubation at room temperature for 1 hr in presence of 4M urea by isoelectric focusing densitometric analysis
Transthyretin [5] = molecular target: T1, Transthyretin; experiment: (§1) Stabilization of recombinant human wild type TTR expressed in Escherichia coli BL21 (DE3) assessed as inhibition of amyloid beta formation by measuring turbidity preincubated for 30 mins followed by lowering pH from 7.2 to 4.4 measured after 72 hrs by microplate spectrophotometric method
Transthyretin [6] = molecular target: T1, Transthyretin; experiment: Binding affinity to recombinant human wild type TTR expressed in Escherichia coli BL21 (DE3) assessed as dissociation constants for first binding site of TTR by isothermal titration calorimetric method
Transthyretin [7] = molecular target: T1, Transthyretin; experiment: Binding affinity to recombinant human wild type TTR expressed in Escherichia coli BL21 (DE3) assessed as dissociation constants for second binding site of TTR by isothermal titration calorimetric method
Transthyretin [8] = molecular target: T1, Transthyretin; experiment: as §1, with “turbidity at 0.5 to 2 times molar concentration” for “turbidity”

Row | Compound | Ratio (Transthyretin [1]) | inhibition (Transthyretin [2]) | CC50 at 72 h [3] [µM] | Ratio [4] | further results
1 | Cc1c(C(=O)O)coc1/C=C/c1ccc(Cl)o1 | 0.961 | Active | 181 | 0.481 | –
2 | Oc1c(Cl)cc(-c2cc(Cl)c(O)c(Cl)c2)cc1Cl | – | – | 60 | – | –
3 | O=C(O)c1ccc2nc(-c3cc(Cl)cc(Cl)c3)oc2c1 | – | Active | 247 | – | –
4 | Cc1oc(/C=C/c2ccc(Cl)o2)cc1C(=O)O | – | – | 225 | – | IC50 (Transthyretin [5]): 2.49 µM; Kd (Transthyretin [6]): 0.0039 µM; Kd (Transthyretin [7]): 0.278 µM
5 | O=C(O)c1cc(-c2ccc(F)cc2F)cc(I)c1O | 0.768 | Active | – | 0.445 | –
6 | N[C@@H](Cc1cc(I)c(Oc2cc(I)c(O)c(I)c2)c(I)c1)C(=O)O | – | – | – | – | inhibition (Transthyretin [8]): Active
